Experimental data as given in patent US11952349B2, “Anti-cancer nuclear hormone receptor-targeting compounds” (Nuvation Bio Inc., priority 2019, dated 2024).
Substitutions are numbered along the chain they refer to. Like-named read-outs stand apart in the source and are kept apart here.

Assays:
Human recombinant PARP2 = Human recombinant PARP2 (Homo sapiens, UniProt Q9UGN5); test: RBC HotSpot PARP2 assay (radioisotope-based filter binding); assay type: biochemical
Description: (§1) The following methods are for evaluating the in vitro biology properties of the test articles. • a. RBC HotSpot Poly(ADP-ribose) Polymerases 1 (PARP1) and Poly(ADP-ribose) Polymerases 2 (PARP2) Assays: The assay was conducted at Reaction Biology Corporation (RBC; Malvern, PA). The assay principle is radioisotope-based filter binding assay where incorporation of radioisotope-labeled NAD^+ into the substrate captured on filter is detected after washout free NAD^+. Data were analyzed using Excel and GraphPad Prism software for IC50 curve fits. Each assay was conducted with PJ34 as a positive control. PARP1 assay: Human recombinant PARP1 at a final concentration of 2.5 nM was combined with histone H4 (20 μM) and test articles at various concentrations in reaction buffer (50 mM Tris-HCL, pH 8.0, 50 mM NaCl, 10 mM MgCl2, 1 mM DTT, 1% DMSO, and 20 μg/mL activated DNA). The solution was inoculated for 20 min at room temperature and the reaction initiated by adding [adenylate-^32P]-Nicotinamide Adenine Dinucleotide, ^32P-NAD^+ at a final concentration of 10 μM. After incubation for 2 hrs at room temperature, the reaction mixture was filtered and washed with 0.75% phosphoric acid for radioactivity detection. • ii. PARP2 assay: Human recombinant PARP2 at a final concentration of 2.5 nM was combined with histone H3 (20 μM) and test articles at various concentrations in reaction buffer (50 mM Tris-HCL, pH 8.0, 50 mM NaCl, 10 mM MgCl2, 1 mM DTT, 1% DMSO, and 20 μg/mL activated DNA). The solution was inoculated for 20 min at room temperature and the reaction was initiated by adding [adenylate-^32P]-Nicotinamide Adenine Dinucleotide, ^32P-NAD^+ at a final concentration of 10 μM. After incubation for 2 hrs at room temperature, the reaction mixture was filtered and washed with 0.75% phosphoric acid for radioactivity detection. • b. AR binding assay: AR in LNCaP cytosol was used for determining the binding affinity of test articles and the reference compound—progesterone (Sigma, Cat: E2785, St. Louis, MO). IC50 s were determined using 8 concentrations/compound. Cytosol is plated at 200 μg/well (100 μL) into a 96-well conical polypropylene plate (Agilent, Cat: 5042-1385, Santa Clara, CA) and mixed with 3 μL of test compound. After adding 100 μL of ^3H-methyltrienolone (PerkinElmer, Cat: NET590250UC, San Jose, CA), the plate was sealed and shaken at 300 rpm at 4° C. for 24 hours. Post incubation, 100 μL of radioligand adsorption buffer containing 10 mM Tris-HCl, pH 7.4; 1.5 mM EDTA; 1 mM DTT; 0.25% charcoal; 0.0025% dextran was added to individual wells. Plate was shaken for 15 min at 4° C. followed by centrifugation at 3000 rpm for 30 min at 4° C. 150 μL of supernatant is transferred into scint-tube (PerkinElmer, Cat: 6000192) and mixed with 2 mL of Ultima Gold Cocktail (PerkinElmer, Cat: 6013329). Radioactivity is counted using a TriCarb 2910 TR scintillation counter (PerkinElmer). Inhibition of the radioactivity by test articles was calculated using the equation below: % Inhibition=(1−(Assay well−Average_LC)/(Average_HC−Average_LC))×100%. • IC50 values (Table 6) were calculated and graphed using the model “log(inhibitor) vs. response—Variable slope” included in GraphPad Prism 5 (San Diego, CA). The Ki values were further calculated using the equation below where [L] is the radioligand concentration (1 nM) used in this study. Kd value was 0.332 nM. Ki=IC50/(1+[L]/Kd) • c. AR transactivation: Human AR cloned into a CMV vector backbone is used for the transactivation study. HEK-293 cells are plated at 80,000 cells per well of a 24 well plate in DME+5% csFBS. Twenty four hours later, the cells are transfected using Lipofectamine (Invitrogen, Carlsbad, CA) with 0.25 μg GRE-LUC, 0.01 μg CMV-LUC (renilla luciferase) and 25 ng of the AR in OPTIMEM medium. The cells are treated 24 hrs after transfection with various ligands (10^−12 to 10^−5 M final concentrations) and luciferase assay performed 48 hours after transfection. […]

22Rv1 cells = test: Cell viability assay (CellTiterGlo, 6 days) 22Rv1; assay type: cell-based; conditions: Homo sapiens, 22Rv1, 144 h, read-out: 22RV1
Description: (§2) Cell viability assay: LNCap, 22Rv1, and T47D cells were seeded at a density of 1500-2000 cells/well in 96 well plates, and a ‘T0’ (timepoint 0) was included along with the assay plate. The plates were then incubated at 37° C., 5% CO2 in a cell culture incubator overnight. On the next day, the ‘T0’ plate was assayed using CellTiterGlo (Promega, Inc) according to the manufacturer's instructions. The appropriate compounds were diluted in DMSO and added to the assay plate (final DMSO concentration of 0.2%) on the next day. The assay plates were incubated for 6 days at 37° C., 5% CO2. After the incubation period, the plates were assayed using CellTiterGlo (Promega, Inc) according to the manufacturer's instructions and luminescence was read on the EnVision plate reader. Inhibition the tested compounds was determined by the following formula: Inhibition rate (%)=(1−(RLU compound−RLU day0)/(RLU control−RLU day0))*100%. GraphPadPrism was used to analyze the data and determine absolute IC50 values.

LNCap cells = test: Cell viability assay (CellTiterGlo, 6 days) LNCap; assay type: cell-based; conditions: Homo sapiens, 144 h
Description: as §2

Human recombinant PARP1 = Human recombinant PARP1 (Homo sapiens, UniProt P09874); test: RBC HotSpot PARP1 assay (radioisotope-based filter binding); assay type: biochemical
Description: as §1

[1] = molecular target: T1, AR, cytosol from LnCaP cells (Homo sapiens, UniProt P10275, T878A); test: AR binding assay, 3H-R1881 (Biological Example 2)
T1 construct: AR in LNCaP cytosol was used; endogenous in cells; host or cells: LNCaP cells (cytosol)
T1 sequence (P10275 1-920 T878A): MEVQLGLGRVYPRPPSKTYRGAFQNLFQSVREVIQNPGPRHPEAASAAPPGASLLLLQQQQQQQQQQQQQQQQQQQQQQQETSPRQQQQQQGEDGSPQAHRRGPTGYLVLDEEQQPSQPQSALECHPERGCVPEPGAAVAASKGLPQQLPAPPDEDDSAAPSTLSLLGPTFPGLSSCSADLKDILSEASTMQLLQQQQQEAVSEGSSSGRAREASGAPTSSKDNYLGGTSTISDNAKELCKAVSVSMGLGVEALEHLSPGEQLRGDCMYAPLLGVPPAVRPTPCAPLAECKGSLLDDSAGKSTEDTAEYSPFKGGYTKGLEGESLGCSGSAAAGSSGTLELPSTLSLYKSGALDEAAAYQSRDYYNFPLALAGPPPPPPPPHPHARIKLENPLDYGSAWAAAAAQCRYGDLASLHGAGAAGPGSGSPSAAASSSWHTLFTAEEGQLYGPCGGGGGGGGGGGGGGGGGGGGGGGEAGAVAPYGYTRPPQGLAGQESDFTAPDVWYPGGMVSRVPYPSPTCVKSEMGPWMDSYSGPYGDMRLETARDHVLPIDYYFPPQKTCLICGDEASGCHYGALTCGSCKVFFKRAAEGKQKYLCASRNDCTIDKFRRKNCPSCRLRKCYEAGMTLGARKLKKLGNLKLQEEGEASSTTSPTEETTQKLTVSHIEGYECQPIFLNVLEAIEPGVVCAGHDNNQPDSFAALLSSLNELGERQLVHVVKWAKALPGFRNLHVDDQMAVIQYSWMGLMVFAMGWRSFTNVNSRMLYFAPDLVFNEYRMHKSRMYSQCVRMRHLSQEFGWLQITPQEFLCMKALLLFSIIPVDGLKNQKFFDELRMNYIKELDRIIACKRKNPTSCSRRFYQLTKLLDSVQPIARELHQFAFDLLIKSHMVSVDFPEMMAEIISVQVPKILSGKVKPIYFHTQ
Description: AR binding assay: To assess AR binding, test compound (top dose […], 4 fold serial dilution, 8 point dose response) and control (progesterone) were transferred to the assay plate. Cytosol from LnCaP cells was added to the plate, followed by addition of radiolabeled ^3H-R1881 at a final concentration of 1 nM. The plate was sealed, and the reaction was incubated at 300 rpm at 4° C. for 24 hrs. Radioligand absorption buffer (10 mM Tris-HCl, pH 7.4; 1.5 mM EDTA; 1 mM DTT; 0.25% charcoal; 0.0025% dextran) was then added to the plate, mixed, and incubated at 4° C. for 15 minutes. The plate was then centrifuged at 3000 rpm for 30 minutes at 4° C. The supernatant was transferred to the scint-tube and Tri-carb was used for scintillation counting. The data was analyzed using GraphPadPrism v5.0 and binding IC50 was determined as the concentration where 50% inhibition of radioligand binding was observed.

[2] = molecular target: T2, full-length androgen receptor (Homo sapiens, UniProt P10275); test: AR antagonism assay (HEK293, testosterone 1 nM, Steady-glo); assay type: cell-based
T2 construct: HEK293 cells stably expressing the full-length androgen receptor; expressed in transfected cells
T2 sequence (P10275 1-920): T1 sequence (P10275 1-920 T878A) with A878T
Description: AR antagonism assay: To evaluate AR antagonist activity, test compound was added to the assay plate (top dose 10 μM, 3 fold serial dilution, 10 point dose response). HEK293 cells stably expressing the full-length androgen receptor were seeded at a density of 20000 cells/well in the assay plate. The assay plate was then incubated at room temperature for 10 minutes and at 37° C., 5% CO2 for 20 minutes. Testosterone was added to the assay plate at 1 nM final concentration and the assay plate was incubated at 37° C., 5% CO2 for 20 h. After the incubation period, Steady-glo was added to the assay plate and mixed at room temperature for 20 minutes on an orbital shaker, before reading out on the EnVision plate reader.

Sequence of Human recombinant PARP2 (Q9UGN5 whole entry): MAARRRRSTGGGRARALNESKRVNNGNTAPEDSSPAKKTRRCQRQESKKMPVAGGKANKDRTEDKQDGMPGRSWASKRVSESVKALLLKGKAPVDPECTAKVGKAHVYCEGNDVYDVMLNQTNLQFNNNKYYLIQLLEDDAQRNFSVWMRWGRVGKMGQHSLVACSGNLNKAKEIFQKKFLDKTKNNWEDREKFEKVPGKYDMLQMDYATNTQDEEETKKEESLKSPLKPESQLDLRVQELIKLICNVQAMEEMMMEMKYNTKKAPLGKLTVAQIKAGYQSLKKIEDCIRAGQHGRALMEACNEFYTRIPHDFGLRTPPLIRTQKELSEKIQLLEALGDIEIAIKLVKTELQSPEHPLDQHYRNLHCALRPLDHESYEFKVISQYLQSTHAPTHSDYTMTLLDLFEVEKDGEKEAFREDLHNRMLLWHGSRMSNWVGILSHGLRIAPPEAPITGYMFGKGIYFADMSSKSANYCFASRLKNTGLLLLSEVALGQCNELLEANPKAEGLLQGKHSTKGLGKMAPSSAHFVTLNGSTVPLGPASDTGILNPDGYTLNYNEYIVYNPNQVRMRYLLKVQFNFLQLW
Sequence of Human recombinant PARP1 (P09874 whole entry): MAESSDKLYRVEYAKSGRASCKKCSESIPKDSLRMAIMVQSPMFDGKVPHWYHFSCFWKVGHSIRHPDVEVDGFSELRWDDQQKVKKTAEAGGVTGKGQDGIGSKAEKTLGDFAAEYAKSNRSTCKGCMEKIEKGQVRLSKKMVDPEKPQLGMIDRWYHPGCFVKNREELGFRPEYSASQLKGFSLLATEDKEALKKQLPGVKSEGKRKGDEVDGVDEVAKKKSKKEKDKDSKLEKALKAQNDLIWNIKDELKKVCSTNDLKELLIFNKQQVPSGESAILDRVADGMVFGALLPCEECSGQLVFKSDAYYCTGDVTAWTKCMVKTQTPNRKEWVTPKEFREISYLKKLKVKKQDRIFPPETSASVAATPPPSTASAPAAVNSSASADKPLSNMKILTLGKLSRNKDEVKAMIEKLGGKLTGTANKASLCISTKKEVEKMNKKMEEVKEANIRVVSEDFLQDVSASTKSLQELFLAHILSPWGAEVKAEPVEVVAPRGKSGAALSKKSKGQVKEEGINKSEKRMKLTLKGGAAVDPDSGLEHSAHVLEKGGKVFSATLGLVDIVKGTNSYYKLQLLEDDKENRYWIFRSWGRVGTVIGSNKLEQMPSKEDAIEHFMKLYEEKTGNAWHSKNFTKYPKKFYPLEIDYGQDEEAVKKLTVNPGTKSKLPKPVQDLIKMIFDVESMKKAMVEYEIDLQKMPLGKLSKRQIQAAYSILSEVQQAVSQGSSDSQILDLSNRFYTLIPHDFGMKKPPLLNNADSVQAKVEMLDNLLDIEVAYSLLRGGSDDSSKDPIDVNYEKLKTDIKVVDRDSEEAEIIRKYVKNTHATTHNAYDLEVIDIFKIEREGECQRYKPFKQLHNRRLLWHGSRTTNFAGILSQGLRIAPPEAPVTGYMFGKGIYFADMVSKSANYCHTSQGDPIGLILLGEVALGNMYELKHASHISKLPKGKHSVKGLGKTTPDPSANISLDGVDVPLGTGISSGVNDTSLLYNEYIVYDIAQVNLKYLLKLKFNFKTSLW

SMILES: C[C@]12C[C@H](CCCCCC(=O)N3CCN(C(=O)c4cc(Cc5n[nH]c(=O)c6ccccc56)ccc4F)CC3)C3=C4CCC(=O)C=C4CC[C@H]3[C@@H]1CCC2=O [Compound 1370, (8S,11S,13S,14S)-11-(6-(4-(2-fluoro-5-((4-oxo-3,4-dihydrophthalazin-1-yl)methyl)benzoyl)piperazin-1-yl)-6-oxohexyl)-13-methyl-7,8,11,12,13,14,15,16-octahydro-1H-cyclopenta[a]phenanthrene-3,17(2H,6H)-dione]
- IC50 (Human recombinant PARP2): < 1 nM
- IC50 (22Rv1 cells): 100 to 1000 nM
- IC50 (LNCap cells; Table 7): 100 to 1000 nM
- IC50 (Human recombinant PARP1): < 1 nM

SMILES: C[C@]12CC[C@H]3[C@@H](CCC4=CC(=O)CC[C@@]43C)[C@@H]1CC[C@@H]2C(=O)COCCCCCC(=O)NCCOCCOCC(=O)N1CCN(C(=O)c2cc(Cc3n[nH]c(=O)c4ccccc34)ccc2F)CC1 [Compound 1392]
- IC50 (Human recombinant PARP2; Table 9, read-out: PARP2): < 1 nM
- IC50 (LNCap cells; Table 8): 1000 to 10000 nM
- IC50 (Human recombinant PARP1; Table 9, read-out: PARP1): 1 to 10 nM

SMILES: C[C@@H]1C[C@@]2(C)[C@@H](CC[C@@H]3[C@@H]2CC[C@]2(C)[C@@H](OCCCCCC(=O)N4CCN(C(=O)c5cc(Cc6n[nH]c(=O)c7ccccc67)ccc5F)CC4)CC[C@@H]32)CC1=O [Compound 1402, 4-(4-fluoro-3-(4-(6-((2R,5S,8R,9S,10S,13S,14S,17S)-2,10,13-trimethyl-3-oxohexadecahydro-1H-cyclopenta[a]phenanthren-17-yloxy)hexanoyl)piperazine-1-carbonyl)benzyl)phthalazin-1(2H)-one]
- IC50 (Human recombinant PARP2; Table 9, read-out: PARP2): 1 to 10 nM
- IC50 (Human recombinant PARP1; Table 9, read-out: PARP1): 10 to 100 nM

SMILES: C[C@]12C=CC(=O)C[C@@H]1CC[C@@H]1[C@@H]2CC[C@]2(C)[C@@H](OCCCCCC(=O)N3CCN(C(=O)c4cc(Cc5n[nH]c(=O)c6ccccc56)ccc4F)CC3)CC[C@@H]12 [Compound 1410, 4-(3-(4-(6-((5S,8R,9S,10R,13S,14S,17S)-10,13-dimethyl-3-oxo-4,5,6,7,8,9, 10,11,12,13,14,15,16,17-tetradecahydro-3H-cyclopenta[a]phenanthren-17-yloxy)hexanoyl)piperazine-1-carbonyl)-4-fluorobenzyl)phthalazin-1(2H)-one]
- IC50 [1]: 10 to 100 nM
- IC50 (22Rv1 cells; Table 7, cell viability, 6 days): 100 to 1000 nM
- IC50 (LNCap cells; Table 7): 100 to 1000 nM
- IC50 [2]: 100 to 1000 nM
